How the values were obtained:
B16-F10 cells [1] = assay: Flow cytometry, surface level of other cytokine receptors (IL1R1, IL6R, GP130, IFNAR1); format: cell-based, murine
Description: (§1) Cells were dissociated from the wells with 0.25% trypsin (Gibco, 25200056). After rinsing with 0.5 ml PBS, each sample was stained with the LIVE/DEAD Fixable Aqua dead cell staining solution (Life Technologies, L34957) in 100 µl PBS (1:1000 dilution) for 15 min at 4 °C. After rinsing with 2 × 0.5 ml PBS, each sample was stained with the corresponding primary antibody-dye conjugates diluted in 100 µl Pharmingen stain buffer (BD Biosciences, #554657). After 1 h staining at 4 °C, the cells were rinsed with 2 × 2 ml Pharmingen stain buffer and fixed with 4.21% (w/w) formaldehyde (BD Biosciences, #554655). Cells were analyzed on LSRFortessa X-20 (BD Biosciences) with appropiate fluorescence compensation. The data were analyzed using FlowJo. Cells were gated based on FSC and SSC. Single cells were selected using FSC-A and FSC-H and viable cells were selected using LIVE/DEAD signal. Primary antibodies used were: H-2K^b/H-2D^b (FITC, Biolegend, #114606, 1:50 dilution), HLA-A,B,C (FITC, Biolegend, #311404, 1:100 dilution), mouse IFNGR1 (PE, Invitrogen, #12-1191-82, 1:50 dilution), human IFNGR1 (PE, Miltenyi, #130-125-851, 1:50 dilution), mouse IL1R1 (APC, Biolegend, #113509, 1:20 dilution), mouse IL6R (APC, Biolegend, #115812, 1:20 dilution), mouse IFNAR1 (APC, Biolegend, #127314, 1:20 dilution), and mouse GP130 (PE, Biolegend, #149404, 1:100 dilution).

B16-F10 cells [2] = assay: Flow cytometry, surface IFNGR1 on CRISPR-edited cells; format: cell-based, murine; settings: for Surface IFNGR1 relative to Parental (Fig. 2c): Parental = 1.00
Description: Parental, CRISPR-edited or biologic-overexpressed tumour cells were seeded in a cell density of 60,000 (B16-F10), 150,000 (CT26), 100,000 (A375), or 200,000 (A549) per well in 12-well plate filled with 0.8 ml culture media + 10% FBS. After overnight incubation, the culture media were replaced with 1 ml fresh media supplemented with 10% FBS and the designated concentration of the recombinant mouse IFNγ (R&D Systems, #485-MI-100) or recombinant human IFNγ (R&D Systems, #285-IF-100). The cells were stimulated with the cytokine for 24 h before they were harvested by trypsinization for flow cytometry, western blot, or qPCR analysis (6 h treatment).
as §1

Question: “gStub1 #1 (guide GCATTGCTAAGAAGAAGCGC; chemistry not given here)” was tested. Which “Surface GP130 (Fig. 2d)” value (B16-F10 cells [1]; replicate 1) did it give?
Answer: The value was 1.09.

Question: And the “Surface IFNAR1 (Fig. 2d)” value (B16-F10 cells [1]; replicate 1)?
Answer: The value was 0.74.

Question: What about the “Surface IL1R1 (Fig. 2d)” value (B16-F10 cells [1]; replicate 1) of the same substance?
Answer: Its value is 0.96.

Question: And the “Surface IL6R (Fig. 2d)” value (B16-F10 cells [1]; replicate 1)?
Answer: The value was 0.93.

Question: What about the “Surface GP130 (Fig. 2d)” value (B16-F10 cells [1]; replicate 2) of the same substance?
Answer: Its value is 1.26.

Question: What about the “Surface IFNAR1 (Fig. 2d)” value (B16-F10 cells [1]; replicate 2) of the same substance?
Answer: The value was 0.87.

Question: What about the “Surface IL1R1 (Fig. 2d)” value (B16-F10 cells [1]; replicate 2) of the same substance?
Answer: The value was 0.97.

Question: What about the “Surface IL6R (Fig. 2d)” value (B16-F10 cells [1]; replicate 2) of the same substance?
Answer: Its value is 1.17.

Question: And the “Surface GP130 (Fig. 2d)” value (B16-F10 cells [1]; replicate 3)?
Answer: Its value is 1.41.

Question: And the “Surface IFNAR1 (Fig. 2d)” value (B16-F10 cells [1]; replicate 3)?
Answer: Its value is 1.30.

Question: And the “Surface IL1R1 (Fig. 2d)” value (B16-F10 cells [1]; replicate 3)?
Answer: The value was 1.05.

Question: And the “Surface IL6R (Fig. 2d)” value (B16-F10 cells [1]; replicate 3)?
Answer: The value was 1.24.

Question: And the “Surface GP130 (Fig. 2d)” value (B16-F10 cells [1]; replicate 4)?
Answer: Its value is 1.20.

Question: What about the “Surface IFNAR1 (Fig. 2d)” value (B16-F10 cells [1]; replicate 4) of the same substance?
Answer: Its value is 1.03.

Question: What about the “Surface IL1R1 (Fig. 2d)” value (B16-F10 cells [1]; replicate 4) of the same substance?
Answer: Its value is 1.02.

Question: And the “Surface IL6R (Fig. 2d)” value (B16-F10 cells [1]; replicate 4)?
Answer: Its value is 1.10.

Question: And the “Surface IFNGR1 (Fig. 2b)” value (B16-F10 cells [2]; IFNg 0.01 ng/ml, replicate 1)?
Answer: Its value is 4507.

Question: And the “Surface IFNGR1 relative to Parental (Fig. 2c)” value (B16-F10 cells [2]; IFNg 0.01 ng/ml, replicate 1)?
Answer: The value was 2.35.

Question: What about the “Surface IFNGR1 (Fig. 2b)” value (B16-F10 cells [2]; IFNg 0.01 ng/ml, replicate 2) of the same substance?
Answer: Its value is 4382.

Question: And the “Surface IFNGR1 relative to Parental (Fig. 2c)” value (B16-F10 cells [2]; IFNg 0.01 ng/ml, replicate 2)?
Answer: The value was 2.34.

Question: What about the “Surface IFNGR1 (Fig. 2b)” value (B16-F10 cells [2]; IFNg 0.01 ng/ml, replicate 3) of the same substance?
Answer: Its value is 3988.

Question: What about the “Surface IFNGR1 relative to Parental (Fig. 2c)” value (B16-F10 cells [2]; IFNg 0.01 ng/ml, replicate 3) of the same substance?
Answer: The value was 2.16.

Question: What about the “Surface IFNGR1 (Fig. 2b)” value (B16-F10 cells [2]; IFNg 0.03 ng/ml, replicate 1) of the same substance?
Answer: Its value is 4026.

Question: And the “Surface IFNGR1 relative to Parental (Fig. 2c)” value (B16-F10 cells [2]; IFNg 0.03 ng/ml, replicate 1)?
Answer: Its value is 1.83.

Question: What about the “Surface IFNGR1 (Fig. 2b)” value (B16-F10 cells [2]; IFNg 0.03 ng/ml, replicate 2) of the same substance?
Answer: The value was 3680.

Question: And the “Surface IFNGR1 relative to Parental (Fig. 2c)” value (B16-F10 cells [2]; IFNg 0.03 ng/ml, replicate 2)?
Answer: The value was 1.69.

Question: What about the “Surface IFNGR1 (Fig. 2b)” value (B16-F10 cells [2]; IFNg 0.03 ng/ml, replicate 3) of the same substance?
Answer: The value was 3566.

Question: And the “Surface IFNGR1 relative to Parental (Fig. 2c)” value (B16-F10 cells [2]; IFNg 0.03 ng/ml, replicate 3)?
Answer: The value was 2.17.

Question: What about the “Surface IFNGR1 (Fig. 2b)” value (B16-F10 cells [2]; IFNg 0.10 ng/ml, replicate 1) of the same substance?
Answer: Its value is 4027.

Question: What about the “Surface IFNGR1 relative to Parental (Fig. 2c)” value (B16-F10 cells [2]; IFNg 0.10 ng/ml, replicate 1) of the same substance?
Answer: Its value is 2.07.

Question: What about the “Surface IFNGR1 (Fig. 2b)” value (B16-F10 cells [2]; IFNg 0.10 ng/ml, replicate 2) of the same substance?
Answer: The value was 3862.

Question: And the “Surface IFNGR1 relative to Parental (Fig. 2c)” value (B16-F10 cells [2]; IFNg 0.10 ng/ml, replicate 2)?
Answer: The value was 2.28.

Question: And the “Surface IFNGR1 (Fig. 2b)” value (B16-F10 cells [2]; IFNg 0.10 ng/ml, replicate 3)?
Answer: Its value is 3601.

Question: And the “Surface IFNGR1 relative to Parental (Fig. 2c)” value (B16-F10 cells [2]; IFNg 0.10 ng/ml, replicate 3)?
Answer: The value was 2.06.

Question: What about the “Surface IFNGR1 (Fig. 2b)” value (B16-F10 cells [2]; IFNg 0.30 ng/ml, replicate 1) of the same substance?
Answer: The value was 3595.

Question: What about the “Surface IFNGR1 relative to Parental (Fig. 2c)” value (B16-F10 cells [2]; IFNg 0.30 ng/ml, replicate 1) of the same substance?
Answer: Its value is 1.70.

Question: And the “Surface IFNGR1 (Fig. 2b)” value (B16-F10 cells [2]; IFNg 0.30 ng/ml, replicate 2)?
Answer: Its value is 3609.

Question: What about the “Surface IFNGR1 relative to Parental (Fig. 2c)” value (B16-F10 cells [2]; IFNg 0.30 ng/ml, replicate 2) of the same substance?
Answer: The value was 2.03.

Question: What about the “Surface IFNGR1 (Fig. 2b)” value (B16-F10 cells [2]; IFNg 0.30 ng/ml, replicate 3) of the same substance?
Answer: Its value is 3263.

Question: What about the “Surface IFNGR1 relative to Parental (Fig. 2c)” value (B16-F10 cells [2]; IFNg 0.30 ng/ml, replicate 3) of the same substance?
Answer: Its value is 1.89.

Question: What about the “Surface IFNGR1 (Fig. 2b)” value (B16-F10 cells [2]; IFNg 1.00 ng/ml, replicate 1) of the same substance?
Answer: The value was 3107.

Question: What about the “Surface IFNGR1 relative to Parental (Fig. 2c)” value (B16-F10 cells [2]; IFNg 1.00 ng/ml, replicate 1) of the same substance?
Answer: Its value is 1.68.

Question: And the “Surface IFNGR1 (Fig. 2b)” value (B16-F10 cells [2]; IFNg 1.00 ng/ml, replicate 2)?
Answer: The value was 3061.

Question: And the “Surface IFNGR1 relative to Parental (Fig. 2c)” value (B16-F10 cells [2]; IFNg 1.00 ng/ml, replicate 2)?
Answer: Its value is 1.74.

Question: What about the “Surface IFNGR1 (Fig. 2b)” value (B16-F10 cells [2]; IFNg 1.00 ng/ml, replicate 3) of the same substance?
Answer: Its value is 2676.

Question: And the “Surface IFNGR1 relative to Parental (Fig. 2c)” value (B16-F10 cells [2]; IFNg 1.00 ng/ml, replicate 3)?
Answer: The value was 1.66.

Question: And the “Surface IFNGR1 (Fig. 2b)” value (B16-F10 cells [2]; IFNg Nil, replicate 1)?
Answer: The value was 4564.

Question: What about the “Surface IFNGR1 relative to Parental (Fig. 2c)” value (B16-F10 cells [2]; IFNg Nil, replicate 1) of the same substance?
Answer: Its value is 2.27.

Question: What about the “Surface IFNGR1 (Fig. 2b)” value (B16-F10 cells [2]; IFNg Nil, replicate 2) of the same substance?
Answer: The value was 4378.

Question: What about the “Surface IFNGR1 relative to Parental (Fig. 2c)” value (B16-F10 cells [2]; IFNg Nil, replicate 2) of the same substance?
Answer: Its value is 2.36.

Question: What about the “Surface IFNGR1 (Fig. 2b)” value (B16-F10 cells [2]; IFNg Nil, replicate 3) of the same substance?
Answer: Its value is 4200.

Question: What about the “Surface IFNGR1 relative to Parental (Fig. 2c)” value (B16-F10 cells [2]; IFNg Nil, replicate 3) of the same substance?
Answer: The value was 2.25.
